Results from PubChem BioAssay (NCI).
“And” between values parts separate entries of the source, which are not always exact repeats. Equal values may be shown once.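 Assay format: 96-well plates, 48-hour exposure. GI50: concentration for 50% inhibition of growth. TGI: total growth inhibition.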

What was measured:
Test in all cases: NCI anticancer screen, dose series, 48 h
[1] = system: HCC-2998 colon
[2] = system: UACC-62 melanoma
[3] = system: HCT-15 colon
[4] = system: CCRF-CEM leukemia
[5] = system: HL-60(TB) leukemia
[6] = system: OVCAR-8 ovarian
[7] = system: NCI-H460 lung
[8] = system: A498 renal
[9] = system: OVCAR-4 ovarian
[10] = system: HOP-92 NSCLC

## c1ccc2c(c1)Nc1ccncc1S2
[1]
  GI50: 27.9 µM
  TGI: > 100 µM
[2]
  GI50: 16.5 µM
  TGI: 56.9 µM
[3]
  GI50: 28 µM
  TGI: > 100 µM
[4]
  GI50: 28.2 µM
  TGI: > 100 µM
[5]
  GI50: 19.4 µM
  TGI: 75.4 µM
[6]
  GI50: 21.6 µM
  TGI: > 100 µM
[7]
  GI50: 18.2 µM
  TGI: 49.7 µM
[8]
  GI50: 5.13 µM
  TGI: 24.4 µM
[9]
  GI50: 23.7 µM
  TGI: > 100 µM
[10]
  GI50: 8.07 µM
  TGI: 71.6 µM

## Cc1cc(N(CCCNc2ccnc3cc(Cl)ccc23)Cc2ccco2)nc(N2CCN(C)CC2)n1
[1]
  GI50: 1.98 µM
  TGI: 4.88 µM
[2]
  GI50: 1.99 µM
  TGI: 3.74 µM
[3]
  GI50: 2.07 µM
  TGI: 10.5 µM
[4]
  GI50: 2.84 µM
  TGI: 10.2 µM
[5]
  GI50: 2.06 µM
  TGI: 4.37 µM
[6]
  GI50: 3.87 µM
  TGI: 16.8 µM
[7]
  GI50: 3.12 µM
  TGI: 11.4 µM
[8]
  GI50: 9.15 µM
  TGI: 45.5 µM
[9]
  GI50: 3.59 µM
  TGI: 19.6 µM
[10]
  GI50: 1.92 µM
  TGI: 4.99 µM

## COC(=O)[C@H]1CCCN1C(=O)[C@H]1CCCN1C(=O)[C@@H](Cc1c[nH]c2ccccc12)NC(=S)Nc1cc(C(F)(F)F)cc(C(F)(F)F)c1
[1]
  GI50: 1.82 µM
  TGI: 3.3 µM
[2]
  GI50: 1.84 µM
  TGI: 3.79 µM
[3]
  GI50: 1.66 µM
  TGI: 3.13 µM
[4]
  GI50: 3.14 µM
  TGI: > 100 µM
[5]
  GI50: 2.38 µM
  TGI: 6.03 µM
[6]
  GI50: 1.98 µM
  TGI: 3.94 µM
[7]
  GI50: 1.96 µM
  TGI: 4.1 µM
[8]
  GI50: 1.67 µM
  TGI: 5.65 µM
[9]
  GI50: 2.86 µM
  TGI: 12.9 µM
[10]
  GI50: 1.2 µM
  TGI: 3.22 µM

## C[CH2][Sn]([CH2]C)([O]C(=O)c1ccccc1OC)[O][Sn]([CH2]C)([CH2]C)[O]C(=O)c1ccccc1OC
[1]
  GI50: > 100 µM
  TGI: > 100 µM
[2]
  GI50: > 100 µM
  TGI: > 100 µM
[3]
  GI50: > 100 µM
  TGI: > 100 µM
[4]
  GI50: 41.2 µM
  TGI: > 100 µM
[5]
  GI50: > 100 µM
  TGI: > 100 µM
[6]
  GI50: > 100 µM
  TGI: > 100 µM
[7]
  GI50: > 100 µM
  TGI: > 100 µM
[8]
  GI50: 44.4 µM
  TGI: > 100 µM
[9]
  GI50: > 100 µM
  TGI: > 100 µM
[10]
  GI50: 89.4 µM
  TGI: > 100 µM

## Cc1ccc(NC(=O)CC2C(=O)Nc3ccccc3S2(=O)=O)c(C)c1 (stereo not given)
[1]
  TGI: 30.5 µM
[2]
  TGI: 50.5 µM
[3]
  TGI: 30.3 µM
[4]
  TGI: 43.2 µM
[5]
  TGI: 14 µM
[6]
  TGI: 34.6 µM
[7]
  TGI: 33.8 µM
[8]
  TGI: 31.2 µM
[9]
  TGI: 41.2 µM
[10]
  TGI: 31 µM

## O=C1OC(C(O)CO)C(O)=C1O (stereo not given)
[1]
  GI50: > 10000 µM
  TGI: > 10000 µM
[2]
  GI50: 1670 µM and 2050 µM
  TGI: 3050 µM and > 5130 µM
[3]
  GI50: 1860 µM
  TGI: 3450 µM and 3870 µM
[4]
  GI50: 239 µM and 275 µM
  TGI: 576 µM and 792 µM
[5]
  GI50: 5590 µM and 5090 µM
  TGI: > 10000 µM
[6]
  GI50: 1550 µM and 1510 µM
  TGI: 3050 µM and 3190 µM
[7]
  GI50: > 10000 µM
  TGI: > 10000 µM
[8]
  GI50: 4650 µM and > 10000 µM
  TGI: > 10000 µM
[9]
  GI50: 1840 µM and 1970 µM
  TGI: 3520 µM and 3940 µM
[10]
  GI50: 2060 µM and > 10000 µM
  TGI: 4480 µM and > 10000 µM

## Oc1cccc2ccc(N/N=C/c3cc(CN4CCOCC4)c(O)c4ncccc34)nc12
[1]
  GI50: 0.0368 µM
  TGI: 1.93 µM
[2]
  GI50: 0.0339 µM
  TGI: 0.55 µM
[3]
  GI50: < 0.0104 µM
  TGI: 1.78 µM
[4]
  GI50: 0.0391 µM
  TGI: 9.95 µM
[5]
  GI50: 0.0298 µM
  TGI: 1.49 µM
[6]
  GI50: 0.0207 µM
  TGI: 2.09 µM
[7]
  GI50: < 0.0104 µM
  TGI: 1.2 µM
[8]
  GI50: 0.376 µM
  TGI: 4.06 µM
[9]
  GI50: 0.0339 µM
  TGI: 2.14 µM
[10]
  GI50: 0.0212 µM
  TGI: 0.0678 µM

## NC(=O)c1csc(C2OC(COP(=O)(O)CP(=O)(O)OCC3OC(n4cnc5c(N)ncnc54)C(O)C3O)C(O)C2O)n1 (stereo not given)
[1]
  TGI: > 100 µM
[2]
  TGI: > 100 µM
[3]
  TGI: > 100 µM
[4]
  TGI: > 100 µM
[5]
  TGI: > 100 µM
[6]
  TGI: > 100 µM
[7]
  TGI: > 100 µM
[8]
  TGI: > 100 µM
[9]
  TGI: > 100 µM
[10]
  TGI: > 100 µM

## Oc1ccc(C(c2ccc(O)cc2)c2ccc(Br)cn2)cc1
[1]
  GI50: 0.322 µM
  TGI: 2.98 µM
[2]
  GI50: 3.71 µM
  TGI: 15.5 µM
[3]
  GI50: 0.425 µM
  TGI: 16.9 µM
[4]
  GI50: 14.7 µM
  TGI: > 100 µM
[5]
  GI50: 10.6 µM
  TGI: 44 µM
[6]
  GI50: 0.276 µM
  TGI: 0.786 µM
[7]
  GI50: 20.7 µM
  TGI: 49.1 µM
[8]
  GI50: 0.6 µM
  TGI: 16.1 µM
[9]
  GI50: 0.101 µM
  TGI: 0.525 µM
[10]
  GI50: 0.25 µM
  TGI: 1.44 µM

## COC1C(N)C(OC2C(Oc3cccc4c(O)c5c(=O)oc6ccc(C)c7c(=O)oc(c34)c5c67)OC(C)C(O)C2(C)O)OC(C)C1O (stereo not given)
[1]
  TGI: 0.336 µM
[2]
  TGI: 0.147 µM
[3]
  TGI: 7.55 µM
[4]
  TGI: 3.66 µM
[5]
  TGI: 9.48 µM
[6]
  TGI: 0.212 µM
[7]
  TGI: 0.139 µM
[8]
  TGI: 0.155 µM
[9]
  TGI: 2.28 µM
[10]
  TGI: 0.0653 µM
